Results reported in patent US12534465B2, “5H-pyrrolo[3,2-d]pyrimidine-2,4-diamino compounds and antibody conjugates thereof” (SUTRO BIOPHARMA, INC., priority 2019, dated 2026).

Experiments:
human TLR7 = molecular target: T1, human TLR7 (Homo sapiens, UniProt Q9NYK1); assay: HEK293-humanTLR7 SEAP reporter assay (Example 8); type: cell-based; conditions: HEK293-hTLR7 SEAP reporter cells, 24 hrs
T1 construct: host or cells: HEK293
T1 sequence (Q9NYK1 27-1049): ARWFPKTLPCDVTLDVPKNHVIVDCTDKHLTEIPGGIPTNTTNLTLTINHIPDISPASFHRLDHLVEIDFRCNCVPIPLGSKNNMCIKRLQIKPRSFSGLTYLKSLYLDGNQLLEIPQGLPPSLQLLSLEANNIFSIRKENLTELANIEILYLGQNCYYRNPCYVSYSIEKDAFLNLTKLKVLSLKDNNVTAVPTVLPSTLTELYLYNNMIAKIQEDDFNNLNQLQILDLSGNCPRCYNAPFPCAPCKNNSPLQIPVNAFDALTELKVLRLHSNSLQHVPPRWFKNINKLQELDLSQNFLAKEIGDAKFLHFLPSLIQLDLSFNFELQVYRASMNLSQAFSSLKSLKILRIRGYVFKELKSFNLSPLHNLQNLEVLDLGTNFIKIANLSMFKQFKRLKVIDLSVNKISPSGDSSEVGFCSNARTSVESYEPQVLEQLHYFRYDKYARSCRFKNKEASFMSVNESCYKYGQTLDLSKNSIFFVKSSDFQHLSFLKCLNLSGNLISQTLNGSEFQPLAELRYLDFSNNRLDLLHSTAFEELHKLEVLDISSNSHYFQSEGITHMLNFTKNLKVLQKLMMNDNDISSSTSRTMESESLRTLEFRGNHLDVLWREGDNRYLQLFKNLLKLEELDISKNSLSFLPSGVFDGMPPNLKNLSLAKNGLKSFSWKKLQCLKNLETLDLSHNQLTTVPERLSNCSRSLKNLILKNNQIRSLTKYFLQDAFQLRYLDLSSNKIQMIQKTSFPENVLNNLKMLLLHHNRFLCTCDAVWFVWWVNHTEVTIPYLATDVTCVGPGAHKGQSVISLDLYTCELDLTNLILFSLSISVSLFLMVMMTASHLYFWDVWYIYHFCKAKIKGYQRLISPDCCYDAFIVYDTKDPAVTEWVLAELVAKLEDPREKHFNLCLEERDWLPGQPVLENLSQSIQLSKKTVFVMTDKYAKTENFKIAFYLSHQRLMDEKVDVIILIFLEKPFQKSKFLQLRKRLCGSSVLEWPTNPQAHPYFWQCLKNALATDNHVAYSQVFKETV
Description: (§1) In this example, the in vitro activity of compounds to activate human TLR7 (or human TLR8 or mouse TLR7) pathway was evaluated on HEK293 reporter cells transfected with human TLR7 (or human TLR8 or mouse TLR7) and an inducible SEAP (secreted embryonic alkaline phosphatase) reporter gene. The SEAP reporter gene is placed under the control of the IFN-β minimal promoter fused to five NF-κB and AP-1-binding sites. Stimulation with a TLR7 agonist activates NF-κB and AP-1 which induces the production of SEAP. Levels of SEAP were determined by HEK-Blue Detection medium.
(§2) The in vitro activity of compounds on TLR7 (human and mouse) and TLR8 (human only) reporter cell lines was assessed as follows. 5-(2-methoxy-4-(piperazin-1-ylmethyl)benzyl)-N4-pentyl-5H-pyrrolo[3,2-d]pyrimidine-2,4-diamine (Compound 1) is a compound used for comparison and has the structure shown below:
(§3) HEK293-humanTLR7 (hTLR7), HEK293-mouseTLR7 (mTLR7) and HEK293-humanTLR8 (hTLR8) reporter cell lines were purchased from Invivogen and cell lines were maintained in the manufacturer's recommended culture medium with required supplemental antibiotics. On the day of assay, the cells were harvested with Accutase and counted by the Vi-CELL Cell Viability Analyzers. Cells were resuspended in HEK blue detection medium and a total of 10,000 cells were seeded in each well of a 384-well flat bottom plate. Serial dilutions of test compounds (1:4 serial dilution starting from 5 μM) were added into treatment wells and assay plates were cultured at 37° C. in a CO2 incubator for 24 hrs. The plates were then read by spectrophotometry at 640 nm. Data was fitted with non-linear regression analysis, using a log(inhibitor) vs. response-variable slope, 3-parameter fit with GraphPad Prism. There result was reported in Table 1 as EC50 (the midpoint of the curve, or concentration at which 50% of the maximum effect was observed).

mouse TLR7 = molecular target: T2, mouse TLR7 (Mus musculus, UniProt P58681); assay: HEK293-mouseTLR7 SEAP reporter assay (Example 8); type: cell-based; conditions: HEK293-mTLR7 SEAP reporter cells, 24 hrs
T2 construct: host or cells: HEK293
T2 sequence (P58681 27-1050): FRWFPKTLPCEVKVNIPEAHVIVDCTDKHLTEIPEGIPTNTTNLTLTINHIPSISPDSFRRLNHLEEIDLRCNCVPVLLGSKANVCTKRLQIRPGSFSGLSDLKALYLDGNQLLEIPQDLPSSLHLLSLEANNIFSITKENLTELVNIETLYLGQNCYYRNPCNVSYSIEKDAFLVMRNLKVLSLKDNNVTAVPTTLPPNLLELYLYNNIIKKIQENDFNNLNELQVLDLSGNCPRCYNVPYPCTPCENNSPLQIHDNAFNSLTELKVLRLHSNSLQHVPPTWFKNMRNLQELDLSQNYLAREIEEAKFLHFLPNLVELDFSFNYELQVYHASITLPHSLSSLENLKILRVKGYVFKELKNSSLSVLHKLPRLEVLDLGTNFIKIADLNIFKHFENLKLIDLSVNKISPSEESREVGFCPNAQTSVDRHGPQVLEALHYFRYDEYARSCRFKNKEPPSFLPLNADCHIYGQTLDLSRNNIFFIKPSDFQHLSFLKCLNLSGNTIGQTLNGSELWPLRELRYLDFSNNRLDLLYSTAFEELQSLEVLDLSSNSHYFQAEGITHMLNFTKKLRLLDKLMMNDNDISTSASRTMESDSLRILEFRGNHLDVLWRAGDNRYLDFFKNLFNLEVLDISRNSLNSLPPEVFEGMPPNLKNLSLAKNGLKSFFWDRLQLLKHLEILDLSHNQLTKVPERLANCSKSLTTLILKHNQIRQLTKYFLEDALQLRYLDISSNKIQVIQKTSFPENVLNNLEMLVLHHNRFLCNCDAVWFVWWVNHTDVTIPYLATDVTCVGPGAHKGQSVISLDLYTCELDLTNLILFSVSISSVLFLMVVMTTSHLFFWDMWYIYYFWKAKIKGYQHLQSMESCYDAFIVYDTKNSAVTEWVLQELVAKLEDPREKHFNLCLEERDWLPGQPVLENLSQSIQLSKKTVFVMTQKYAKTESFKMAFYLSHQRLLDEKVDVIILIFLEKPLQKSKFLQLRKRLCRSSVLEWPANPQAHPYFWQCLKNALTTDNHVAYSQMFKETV
Description: as §1, §2, §3

| EC50 (human TLR7) [nM] | EC50 (mouse TLR7) [nM] | SMILES |
| --- | --- | --- |
| 1.9 | 4.6 | CCCCCNc1nc(N)nc2ccn(Cc3ccc(CN4CCNCC4)cc3OC)c12 [Compound 1, 5-(2-methoxy-4-(piperazin-1-ylmethyl)benzyl)-N4-pentyl-5H-pyrrolo[3,2-d]pyrimidine-2,4-diamine, reference compound] |
| 1.5 | 3.7 | CCCCCNc1nc(N)nc2ccn(Cc3ccc(CN4CC5(CNCCO5)C4)cc3OC)c12 [Compound 10, 5-[[2-methoxy-4-(5-oxa-2,8-diazaspiro[3.5]nonan-2-ylmethyl)phenyl]methyl]-N4-pentyl-pyrrolo[3,2-d]pyrimidine-2,4-diamine] |

| SMILES | EC50 (human TLR7) [nM] | EC50 (mouse TLR7) [nM] |
| --- | --- | --- |
| CCCCCNc1nc(N)nc2ccn(Cc3ccc(CN4CC(NC)C4)cc3OC)c12 [Compound 2, 5-(2-methoxy-4-((3-(methylamino)azetidin-1-yl)methyl)benzyl)-N4-pentyl-5H-pyrrolo[3,2-d]pyrimidine-2,4-diamine] | 1.6 | 10.2 |
